Experimental data as given in patent publication EP0369664B1, “Fish CRF” (THE SALK INSTITUTE FOR BIOLOGICAL STUDIES, priority 1988, dated 1994).
Read-outs that look alike come from different tables or passages of the source. No end group written: not given here.

Experiments:
[1] = vasodilatory-hypotensive activity, lowering of systemic blood pressure; type: in vivo; details: for vasodilatory-hypotensive activity: called mammalian for Example III only; for systemic blood pressure: in vivo
[2] = tested on: secretion of ACTH and β-END-LI; assay: secretion of ACTH and β-END-LI, test system not specified
[3] = tested on: ACTH and β-END-LI secretion; assay: ACTH and β-END-LI secretion in vivo in several rat preparations
[4] = lowering of blood pressure, general statement; type: in vivo; details: for an extended time period
[5] = blood pressure in the rat; type: in vivo
[6] = tested on: cultured rat pituitary cells; assay: secretion of ACTH and β-endorphin by cultured rat pituitary cells; type: cell-based
[7] = tested on: pituitary-adrenalcortical axis; assay: stimulation of the pituitary-adrenalcortical axis and levels of pro-opiomelanocortin products; details: in vivo
teleost fish pituitaries = assay: secretion of ACTH by teleost fish pituitaries; type: cell-based
[8] = blood pressure in the dog; type: in vivo
[9] = activity and learning performance after administration into the ventricles; type: in vivo; details: rats, administered into the ventricles
ACTH and β-endorphin = ACTH and β-endorphin activities in vitro and in vivo, general statement
[10] = in mammals; reported; cited from earlier work
gastric acid production = details: in vivo; cited from earlier work
[11] = tested on: secretion of ACTH and β-endorphin; details: reported; cited from earlier work

PPISLDLTFHLLREVLEMARAEQLAQQAHSNRKMMEIF-NH2 [III]
vasodilatory-hypotensive activity [1]: significant
systemic blood pressure [1]: lowering
secretion of ACTH [2]: stimulates

SEEPPISLDLTFHLLREVLEMARAEQLAQQAHSNRKMMEIF-NH2 [Example I]
ACTH secretion [3]: stimulates
β-END-LI secretion [3]: stimulates
blood pressure [4]: substantially lowers
blood pressure [5]: marked fall
secretion of ACTH [6]: stimulates
secretion of β-endorphin [6]: stimulates
levels of ACTH, β-END, β-lipotropin, other pro-opiomelanocortin gene products and corticosterone [7]: elevates
pituitary-adrenalcortical axis [7]: profoundly stimulates
secretion of ACTH (teleost fish pituitaries): stimulates
blood pressure [8]: sustained depression
activity [9]: increases
learning performance [9]: improves
ACTH activies (ACTH and β-endorphin): stimulates
β-endorphin activies (ACTH and β-endorphin): stimulates

oCRF: ovine corticotropin releasing factor, characterized in 1981, U.S. Patent No. 4,415,558 (H-SQEPPISLDLTFHLLREVLEMTKADQLAQQAHSNRKLLDIA-NH2; ends and bridges not checked; UniProt P01142 148-188, looked up)
blood pressure [10]: lowering
gastric acid production (gastric acid production): inhibits
secretion of ACTH [11]: stimulating
secretion of β-endorphin [11]: stimulating

Sauvagine
blood pressure [10]: lowering
secretion of ACTH [11]: stimulating
secretion of β-endorphin [11]: stimulating

Ac-SEEPPISLDLTFHLLREVLEMARAEQLAQQAHSNRKMMEIF-NH2 [II]
vasodilatory-hypotensive activity [1]: causes vasodilatory-hypotensive activity
systemic blood pressure [1]: lowering
secretion of ACTH [2]: stimulates
secretion of β-END-LI [2]: stimulates
